In US20050277656A1, “Combination comprising docetaxel and a CDK inhibitor” (Cyclacel Limited, priority 2002, published 2005):

Key:
[1] = toxicities (lethality, body weight change) in the LXFL H460 xenograft study; assay type: in vivo, nude mice (NMRI nu/nu); conditions: single therapy: CYC202 300 mg/kg/d po bd days 0-4, 7-11, 14-18, TXT 20 mg/kg iv days 0, 14; for Median BWC % (day 21): one week after last therapy of docetaxel
[2] = test system: MAXF 857 primary breast cancer xenograft; conditions: taxotere on day 2, roscovitine on days 0-3 and 7-9 after randomization, or the combination of the two treatments
[3] = test system: breast tumor cells (MDA-435); assay: MTT assay, roscovitine exposure followed by docetaxel; conditions: single agent at 100% of its IC50 (roscovitine 15 ug/ml or Tax. […])
[4] = test system: lung cancer xenograft (LXFL H460); assay: human tumour xenograft study, Experiment 2: docetaxel/roscovitine scheduling (LXFL H460); assay type: in vivo, nude mice (NMRI nu/nu); conditions: for T/C [%] day 28 / T/Copt [%] / dayopt. (day of T/Copt): single therapy: CYC202 300 mg/kg/d po bd days 0-4, 7-11, 14-18, TXT 20 mg/kg iv days 0, 14

SMILES	Median BWC % (day 21) [1]	optimal T/C [2]	% Abs [3]	% Response [3]	T/C [%] day 28 [4]	T/Copt [%] [4]	dayopt. (day of T/Copt) [4]	T/C [%] day 28 ([4]; listed as CYC202)	Lethality n (day) [1]	Tumor growth delay in relation to the vehicle treated control ([4]; LXFL H460, combination Schedule 1, or docetaxel in single therapy)	T/C [%] day 28 ([4]; listed as TXT)
CC[C@H](CO)Nc1nc(NCc2ccccc2)c2ncn(C(C)C)c2n1 [roscovitine, 6-benzylamino-2-[(R)-1-ethyl-2-hydroxyethylamino]-9-isopropylpurine]	+7.1%	63%	0%	43.3%	64%	64.3%	28 days	64.3%	–	–	–
CC(=O)O[C@@]12CO[C@@H]1C[C@H](O)[C@@]1(C)C(=O)[C@H](O)C3=C(C)[C@@H](OC(=O)[C@H](O)[C@@H](NC(=O)OC(C)(C)C)c4ccccc4)C[C@@](O)([C@@H](OC(=O)c4ccccc4)[C@H]21)C3(C)C [docetaxel]	−4.2%	21%	–	40.7%	27%	12.2%	10 days	–	0/10	9 days	27.3%
